Read-outs that look alike come from different tables or passages of the source.
Tests used:
Format in all cases: cell-based
[1] = tested on: HepG2 (human liver cancer); assay: SRB cytotoxicity assay, HepG2; conditions: 72 h
[2] = tested on: HeLa (human cervix cancer); assay: SRB cytotoxicity assay, HeLa; conditions: 72 h, mean ± SD
[3] = tested on: HEp-2 (human larynx epidermal cancer); assay: SRB cytotoxicity assay, HEp-2; conditions: 72 h, mean ± SD
Source text: All the synthesized derivatives of 1 and 2 were screened for their anticancer activities against four human cancer cell lines (HeLa, PC-3, HEp-2 and HepG2) and two normal cell lines (CHO and HUVEC) using the sulforhodamine B (SRB) assay.
PC-3 (human prostate cancer), HepG2 (human liver cancer) and CHO (Chinese hamster ovary) cell lines were obtained from Shanghai Institute of Biochemistry and Cell Biology, Chinese Academy of Sciences. HeLa (human cervix cancer), HUVEC (human umbilical vein endothelial cells) and HEp-2 (human laryngeal cancer) cell lines were granted by Prof. Lei of college of life sciences, Northwest A&F University. The six cell lines were grown in RPMI-1640 (Gibco) containing 10% (v/v) thermally inactivated fetal bovine serum (FBS), penicillin (100 KU/L) and streptomycin (100 KU/L) at 37 °C in a 5% CO2 humidified incubator.
In vitro cytotoxicity was assessed by using the SRB colorimetric assay refer to previous methods[19],[42].

[4] = tested on: PC-3 (human prostate cancer); assay: SRB cytotoxicity assay, PC-3; conditions: 72 h
[5] = mean ± SD, read-out: IC50 HepG2
[6] = read-out: IC50 HepG2 (Table 3, C13-methylene modified derivatives)
[7] = read-out: IC50 PC-3 (Table 3, C13-methylene modified derivatives)

| Compound | IC50 [1, 5] [µM] | IC50 [2] [µM] | IC50 [3] [µM] | IC50 ([4]; mean ± SD, read-out: IC50 PC-3) [µM] | IC50 [1, 6] [µM] | IC50 [4, 7] [µM] |
| --- | --- | --- | --- | --- | --- | --- |
| C=C1C(=O)O[C@@H]2C[C@]3(C)C(=C[C@H]12)[C@@H](C)CC[C@H]3OC(=O)c1ccccc1 [1b, 1β-benzoyl alantolactone] | > 40 | 25.5 ± 3.2 | > 40 | > 40 | – | – |
| C=C1C(=O)O[C@@H]2C[C@]3(C)C(=C[C@H]12)[C@@H](C)CC[C@H]3OC(=O)c1ccc(F)cc1 [1c, 1β-(4-fluorobenzoyl) alantolactone] | > 40 | > 40 | > 40 | > 40 | – | – |
| C=C1C(=O)O[C@@H]2C[C@]3(C)C(=C[C@H]12)[C@@H](C)CC[C@H]3OC(=O)c1ccc([N+](=O)[O-])cc1 [1d] | 23.5 ± 3.6 | > 40 | > 40 | > 40 | – | – |
| C=C1C(=O)O[C@@H]2C[C@]3(C)C(=C[C@H]12)[C@@H](C)CC[C@H]3OC(=O)c1ccc(OC)cc1 [1e] | 34.1 ± 4.8 | > 40 | > 40 | > 40 | – | – |
| C=C1C(=O)O[C@@H]2C[C@]3(C)C(=C[C@H]12)[C@@H](C)CC[C@H]3OC(=O)/C=C/c1ccc(Br)cc1 [1f, 1β-(4-bromocinnamoyl) alantolactone] | 12.5 ± 2.2 | > 40 | > 40 | 18.7 ± 5.2 | – | – |
| C=C1C(=O)O[C@@H]2C[C@]3(C)C(=C[C@H]12)[C@@H](C)CC[C@H]3OC(=O)/C=C/c1ccc(C(F)(F)F)cc1 [1g, 1β-(4-trifluoromethyl) alantolactone] | 15.2 ± 3.8 | 10 ± 2.1 | > 40 | 11.8 ± 2.8 | – | – |
| CC1CCC(OC(=O)c2ccccc2)C2(C)CC3OC(=O)C4(CCC(=O)O4)C3C=C12 (stereo not drawn) [1j, 1β-benzoyl alanto-spirobislactone] | – | – | – | – | > 40 | > 40 |
| Cc1ccc(C2=NO[C@]3(C2)C(=O)O[C@@H]2C[C@@]4(C)C(=O)CC[C@H](C)C4=C[C@@H]23)cc1 [1k, (11 S)-16-(p-methylphenyl)-spiroisoxazoline-1-carbonyl-alantolactone] | – | – | – | – | > 40 | > 40 |
| C[C@H]1CCC(=O)[C@]2(C)C[C@H]3OC(=O)[C@]4(CC(c5ccc([N+](=O)[O-])cc5)=NO4)[C@H]3C=C12 [1l, (11 S)-16-(p-nitrophenyl)-spiroisoxazoline-1-carbonyl-alantolactone] | – | – | – | – | > 40 | > 40 |
| C[C@H]1CCC(=O)[C@]2(C)C[C@H]3OC(=O)[C@]4(CC(c5ccccc5[N+](=O)[O-])=NO4)[C@H]3C=C12 [1m, (11 S)-16-(o-nitrophenyl)-spiroisoxazoline-1-carbonyl-alantolactone] | – | – | – | – | > 40 | > 40 |
| C[C@H]1CCC(=O)[C@]2(C)C[C@H]3OC(=O)[C@]4(CC(c5ccc(Cl)cc5)=NO4)[C@H]3C=C12 [1n, (11 S)-16-(p-chlorophenyl)-spiroisoxazoline-1-carbonyl-alantolactone] | – | – | – | – | > 40 | > 40 |
| COc1ccc(C2=NO[C@]3(C2)C(=O)O[C@@H]2C[C@@]4(C)C(=O)CC[C@H](C)C4=C[C@@H]23)cc1 [1o, (11 S)-16-(p-methoxyphenyl)-spiroisoxazoline-1-carbonyl-alantolactone] | – | – | – | – | > 40 | > 40 |
| COc1ccc(Cl)cc1C1=NO[C@]2(C1)C(=O)O[C@@H]1C[C@@]3(C)C(=O)CC[C@H](C)C3=C[C@@H]12 [1p, (11 S)-16-(5-chloro-2-methoxylphenyl)-spiroisoxazoline-1-carbonyl-alantolactone] | – | – | – | – | > 40 | > 40 |
| COc1cc(C2=NO[C@]3(C2)C(=O)O[C@@H]2C[C@@]4(C)C(=O)CC[C@H](C)C4=C[C@@H]23)c(Cl)c(OC)c1OC [1q, (11 S)-16-(2-chloro-3,4,5-trimethoxylphenyl)-spiroisoxazoline-1-carbonyl-alantolactone] | – | – | – | – | > 40 | > 40 |
| C=C1C(=O)O[C@@H]2C[C@]3(C)C(=C(C)CC[C@H]3OC(C)=O)C[C@H]12 [2a, 1β-ethanoyl ivangustin] | > 40 | 32.3 ± 2 | > 40 | 28.9 ± 4.5 | – | – |
